Results taken from PMC8478281, “Targeting the FtsZ Allosteric Binding Site with a Novel Fluorescence Polarization Screen, Cytological and Structural Approaches for Antibacterial Discovery” (Journal of Medicinal Chemistry, 2021).
Values after ≈ are worked out from the molar mass of the structure shown.

Experiments:
[1] = molecular target: T1, stabilized polymers of FtsZ from B. subtilis (Bacillus subtilis, UniProt P17865); experiment: Competition assay: displacement of probe (R)-5 from stabilized BsFtsZ-GMPCPP polymers; format: binding; settings: for Kd: stabilized polymers of FtsZ from B. subtilis, probe (R)-5, mean ± SEM, read-out: KD
T1 construct: made in house
T1 sequence (P17865 whole entry): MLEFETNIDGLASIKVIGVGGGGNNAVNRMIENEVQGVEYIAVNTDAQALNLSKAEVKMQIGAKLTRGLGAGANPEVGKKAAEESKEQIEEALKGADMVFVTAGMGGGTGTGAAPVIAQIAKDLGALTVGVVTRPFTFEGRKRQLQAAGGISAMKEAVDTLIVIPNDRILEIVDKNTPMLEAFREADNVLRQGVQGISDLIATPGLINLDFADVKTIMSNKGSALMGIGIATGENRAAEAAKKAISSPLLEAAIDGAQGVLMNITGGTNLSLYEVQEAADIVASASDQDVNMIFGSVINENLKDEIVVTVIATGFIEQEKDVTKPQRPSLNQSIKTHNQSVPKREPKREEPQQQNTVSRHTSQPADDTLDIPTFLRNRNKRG
Protocol: (§1) FtsZ (10–15 μM) was assembled in HEPES buffer, 10 mM MgCl2, 50 μM GMPCPP at 25 °C for 10 min, and then 0.15% (v/v) glutaraldehyde[36] (distilled grade for microscopy, TAAB Laboratories, U.K.) was added to the solution that was incubated at 25 °C for 10 min more. (This was the minimal glutaraldehyde concentration determined to stabilize FtsZ polymers specifically binding probe 1.) The remains of the cross-linking agent were quenched by adding 60 mM NaBH4, the sample was incubated on ice for 10 min and degassed.[36] Cross-linked polymers were centrifuged for 10 min at 8200g (5000 rpm) and 4 °C in 15 mL Falcon tubes employing a Rotina 380R (Hettich) centrifuge, the supernatant was removed and the pellet was resuspended in the same volume of HEPES buffer, 10 mM MgCl2, containing 5 μM GMPCPP. Fixed FtsZ polymers were active in binding assays after more than 2 days at 4 °C; they could also be frozen in liquid nitrogen with a small loss of binding capacity. […] Cross-linked polymers of SaFtsZ were similarly prepared.
(§2) Competition assays were performed by measuring, through the decrease in fluorescence anisotropy, the displacement of the fluorescent probes from stabilized FtsZ polymers. Increasing concentrations of competing ligands were added to the mixtures of cross-linked FtsZ polymers (10–15 μM) with probe 1 (3 μM), 7–8 μM FtsZ polymers with probe (S)-2 (3 μM), or 2–3 μM FtsZ polymers with (R)-5 (3 μM). HEPES buffer with 10 mM MgCl2 and 0.1 mM GMPCPP was employed, with a final volume of 0.5 mL, and the anisotropy measured at 25 °C. Under these conditions, the initial fraction of the probe bound was between 0.4 and 0.5. The fraction of the probe bound (Vb) was calculated [drawing 1] where rfree and rmax are the anisotropy values of the free and bound probes, respectively, and R is the ratio between the fluorescence intensities of the bound and free probe (Table S1). The binding data were plotted against the competing ligand concentration and fitted by competition equilibrium of the ligand and the probe for the same binding site. The resulting system of equations[50] was numerically solved using the Equigra v. 5.0 program,[33] which provided the best-fitted value of the competitor binding constant.

[2] = molecular target: T2, stabilized SaFtsZ polymers (Staphylococcus aureus, UniProt P0A031); experiment: Competition assay with stabilized SaFtsZ polymers; format: binding; settings: read-out: KD (in parenthesis) (converted)
T2 construct: Full-length S. aureus FtsZ (SaFtsZ); made in house
T2 sequence (P0A031 whole entry): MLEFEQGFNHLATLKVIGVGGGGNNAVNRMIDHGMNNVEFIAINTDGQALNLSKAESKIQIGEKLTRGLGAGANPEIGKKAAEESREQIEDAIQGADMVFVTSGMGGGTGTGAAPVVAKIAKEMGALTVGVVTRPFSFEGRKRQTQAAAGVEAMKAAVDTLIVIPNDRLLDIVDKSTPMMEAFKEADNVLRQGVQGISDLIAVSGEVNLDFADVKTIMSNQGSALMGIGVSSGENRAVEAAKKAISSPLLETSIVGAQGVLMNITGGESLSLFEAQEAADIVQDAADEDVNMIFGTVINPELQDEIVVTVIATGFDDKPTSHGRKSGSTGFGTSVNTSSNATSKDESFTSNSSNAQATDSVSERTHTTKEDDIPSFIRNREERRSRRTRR
Protocol: Full-length S. aureus FtsZ (SaFtsZ) and the truncated protein SaFtsZ(12–315) were purified as described.[34] SaFtsZ was assembled in 50 mM MES, 50 mM KCl, 1 mM EDTA, pH 6.5 plus 10 mM MgCl2, and 0.1 mM GMPCPP.
as §1, §2

[3] = test system: B. subtilis; experiment: Minimal division inhibitory concentration and cell division phenotype, B. subtilis; format: cell-based, Bacillus subtilis; settings: Bacillus subtilis, read-out: MDC B. subtilis
Protocol: (§3) B. subtilis 168 and Staphylococcus spp. were grown in cation adjusted Mueller–Hinton broth (CAMHB; Becton, Dickinson and Company) at 37 °C. B. subtilis SU570 were grown in the same medium at 30 °C. In all cases, the cells were grown to an absorbance of 0.1–0.2 at 600 nm and then incubated either with the compounds or DMSO vehicle. Microscopy assays and cell measurement were performed as previously described.[31] MIC values were determined by a broth macrodilution method.[51] MBC values were determined as the lowest concentration of inhibitor at which there was a 99.9% reduction in colony-forming units/mL compared to the inoculum. To construct a S. aureus strain expressing FtsZ-mCherry, the plasmid pCN-ftsZmch[9] was electroporated into RN4220 and 0.1 μM cadmium chloride (Sigma-Aldrich) was used to induce the expression of the construct under the control of the Pcad promoter.

[4] = test system: S. aureus Mu50; experiment: Minimal division inhibitory concentration, S. aureus Mu50; format: cell-based; settings: Staphylococcus aureus, MU50, read-out: MDC S. aureus Mu50
Protocol: as §3

[5] = test system: B. subtilis; experiment: Minimal growth inhibitory concentration (broth macrodilution), B. subtilis; format: cell-based, Bacillus subtilis; settings: Bacillus subtilis, read-out: MIC B. subtilis
Protocol: as §3

[6] = test system: S. aureus Mu50; experiment: Minimal growth inhibitory concentration (broth macrodilution), S. aureus Mu50; format: cell-based, Staphylococcus aureus; settings: Staphylococcus aureus, MU50, read-out: MIC S. aureus Mu50
Protocol: as §3

[7] = Solubility in HEPES buffer with 2% DMSO, spectrophotometric; format: physicochemical; settings: HEPES buffer containing 2% DMSO, 25 °C, aqueous buffer, kinetic from dmso stock; HEPES buffer pH 6.8 containing 2% DMSO
Protocol: 3.2. Solubility of Compounds. Stock solutions of compounds were prepared in
DMSO (spectroscopic grade, Merck) a nd stored at -20 °C. Compound solubility in 50
mM HEPES-KOH, 50 mM KCl, 1 mM EDTA, pH 6.8 (HEPES buffer) containing 2%
DMSO was determined spectrophotometrically, monitoring the linear correlation
between the absorbance and the compound concentration and the absence of light
scattering. The solutions were optionally centrifuged at 100000 rpm for 20 min at 25 °C
in a TLA100 rotor with a Beckman Optima Max -XP ultracentrifuge.

[8] = test system: B. subtilis 168; experiment: Cell length of B. subtilis 168 incubated with FtsZ inhibitors; format: cell-based, Bacillus subtilis; design: unit of the concentration uncertain; unit not given here; settings: B. subtilis 168, 3 h
Protocol: Figure 4 Fluorescence anisotropy screen for FtsZ allosteric inhibitors combined with cell-based methods. (A) Screen for FtsZ inhibitors employing the fluorescence anisotropy of probe (S)-2 (3 μM) and stabilized FtsZ-GMPCPP polymers (8 μM binding sites). […] Control values with the corresponding concentrations of dimethyl sulfoxide (DMSO) vehicle (2% void and gray circles; 4%, black circle) are also shown. […] Raw data plots (n ≥ 30) are shown with the mean values marked (statistics in Table S2). The cells were incubated for 3 h with each compound, and cell lengths were measured. (D) Representative phase-contrast images of cells after 3 h with 7 or 9 (0.75 mM each). (E) Cellular localization of FtsZ-GFP in B. subtilis SU570 following growth for 1.5 h in the absence (inset) and presence of 7 (0.2 mM). Bars, 10 μm.
as §3, with “MBC values were determined as the lowest concentration of inhibitor at which there was a 99.9% reduction in colony-forming units/mL compared to the inoculum.” left out, “promoter. […]” for “promoter.”

[9] = test system: S. aureus; experiment: Minimal bactericidal concentration; format: cell-based; settings: Staphylococcus aureus; 99.9% reduction in colony-forming units/mL
Protocol: as §3

[10] = MTT cytotoxicity assay; format: cell-based; settings: human, IMR90 lung fibroblast cells, relative to vehicle; for viability at 100 µM: IMR90, 100 µM
Protocol: The sensitivity of the IMR90 cell line to compounds was tested through a standard 3-(4,5-dimethylthiazol-2-yl)-2,5-diphenyltetrazolium bromide (MTT) assay.[52] The results were reported as the viability percentage of the tested compound relative to vehicle (DMSO), obtained from two or three independent experiments performed in triplicate.

[11] = test system: S. aureus subsp. aureus (ATCC 25923); experiment: Minimal growth inhibitory concentration, S. aureus subsp. aureus; format: cell-based; settings: Staphylococcus aureus, ATCC25923
Protocol: as §3

[12] = test system: Staphylococcus haemolyticus; experiment: Minimal growth inhibitory concentration, S. haemolyticus; format: cell-based
Protocol: as §3

[13] = test system: Staphylococcus epidermidis; experiment: Minimal growth inhibitory concentration, S. epidermidis; format: cell-based
Protocol: as §3

[14] = molecular target: T3, stabilized FtsZ-GMPCPP polymers (BsFtsZ) (Bacillus subtilis, UniProt P17865); experiment: Competition assay: displacement of probe (S)-2 from stabilized FtsZ-GMPCPP polymers; format: binding; settings: KD, (S)-2 3 μM, 8 μM binding sites
T3 construct: made in house
T3 sequence (P17865 whole entry): as the sequence (P17865 whole entry) above
Protocol: as §1, §2

SMILES | fold weaker affinity and MDC than the (R)-enantiomer [1] | Kd [1] [µM] | Kd [2] [µM] | minimal effective concentration [3] [µM] | minimal effective concentration [4] [µM] | MIC [5] [µM] | MIC [6] [µM] | solubility [7] [µM] | length ([8]; 10 (unit uncertain) as printed) | MBC [9] [µM] | viability at 100 µM [10] [%] | length ([8]; 2.5 (unit uncertain) as printed) | length ([8]; 5 (unit uncertain) as printed) | MIC [11] [µM] | MIC [12] [µM] | MIC [13] [µM] | viability at 25 µM ([10]; IMR90, 25 µM) [%] | length ([8]; 1 (unit uncertain) as printed) | viability at 50 µM ([10]; IMR90, 50 µM) [%] | Kd [14] [µM]
CCC[C@@H](COc1ccc(F)c(C(N)=O)c1F)Nc1cccc(C(F)(F)F)c1 [(S)-26] | 10–20 fold | 3.8 ± 0.2 | 7 | > 10 | 100 | 50 (≈ 20.1 µg/mL) | 100 (≈ 40.2 µg/mL) | 100 (≈ 40.2 µg/mL) | 4.9 ± 0.2 | – | – | – | – | – | – | – | – | – | – | –
NC(=O)c1c(F)ccc(OCCNc2cccc(C(F)(F)F)c2)c1F [Compound 25, 2,6-Difluoro-3-(2-{[3-(trifluoromethyl)phenyl]amino}ethoxy)benzamide] | – | 1.9 ± 0.2 | 0.3 | 5 | 50 | 10 (≈ 3.6 µg/mL) | 100 (≈ 36 µg/mL) | 100 (≈ 36 µg/mL) | – | 100 (≈ 36 µg/mL) | 88 ± 1 | 4.8 ± 0.1 | 27.4 ±0.9 | – | – | – | – | – | – | –
CCC[C@H](COc1ccc(F)c(C(N)=O)c1F)Nc1cccc(C(F)(F)F)c1 [(R)-26] | – | 0.2 ± 0.1 | < 0.1 | 1 | 10 | 2.5 (≈ 1.01 µg/mL) | 25 (≈ 10.1 µg/mL) | 100 (≈ 40.2 µg/mL) | – | 25 (≈ 10.1 µg/mL) | – | – | – | 25 (≈ 10.1 µg/mL) | 25 (≈ 10.1 µg/mL) | 25 (≈ 10.1 µg/mL) | 100 ± 1 | 17.6 ±0.8 | – | –
NC(=O)c1c(F)ccc(OCc2cccc(C(F)(F)F)c2)c1F [Compound 20, 2,6-Difluoro-3-{[3-(trifluoromethyl)benzyl]oxy}benzamide] | – | 0.7 ± 0.2 | 0.7 ± 0.2 | 10 | 50 | 25 (≈ 8.28 µg/mL) | 50 (≈ 16.6 µg/mL) | 50 (≈ 16.6 µg/mL) | – | 100 (≈ 33.1 µg/mL) | – | – | – | 25 (≈ 8.28 µg/mL) | 25 (≈ 8.28 µg/mL) | 25 (≈ 8.28 µg/mL) | – | – | 84 ± 5 | –
NC(=O)c1c(F)ccc(OCc2cccc(Cl)c2)c1F [Compound 18, 3-[(3-Chlorobenzyl)oxy]-2,6-difluorobenzamide] | – | 1.3 ± 0.1 | – | 10 | 50 | 25 (≈ 7.44 µg/mL) | 100 (≈ 29.8 µg/mL) | ≥ 100 | – | 100 (≈ 29.8 µg/mL) | 90 ± 7 | – | – | – | – | – | – | – | – | –
CCCC(COc1ccc(F)c(C(N)=O)c1F)Nc1cccc(C(F)(F)F)c1 (racemic) [rac-26, 2,6-Difluoro-3-[(2-{[3-(trifluoromethyl)phenyl]amino}pentyl)oxy]benzamide] | – | 1.1 ± 0.1 | – | 2.5 | 25 | 5 (≈ 2.01 µg/mL) | 50 (≈ 20.1 µg/mL) | 50 (≈ 20.1 µg/mL) | – | – | – | – | – | 100 (≈ 40.2 µg/mL) | 50 (≈ 20.1 µg/mL) | 50 (≈ 20.1 µg/mL) | – | – | – | –
NC(=O)c1c(F)ccc(OCc2nc3cc(Cl)cnc3s2)c1F [PC190723, reference compound] | – | < 0.1 | < 0.1 | 2.5 | 1 | 5 (≈ 1.78 µg/mL) | 5 (≈ 1.78 µg/mL) | 10 (≈ 3.56 µg/mL) | – | 5 (≈ 1.78 µg/mL) | – | – | – | – | – | – | – | – | – | < 0.1
